Assay results taken from PMC9928189 (ACS catalysis, 2022).
Substitutions are numbered along the chain they refer to.

Experiments:
Assay in all cases: X-ray crystal structure
Format in all cases: binding
MroM-CspL = biological target: T1, MroM-CspL (Mycena rosella, UniProt A0A9X9ZA30); conditions: 1.93 Å; cyclosporin-like core fused and N-methylated
T1 sequence (A0A9X9ZA30 4-402): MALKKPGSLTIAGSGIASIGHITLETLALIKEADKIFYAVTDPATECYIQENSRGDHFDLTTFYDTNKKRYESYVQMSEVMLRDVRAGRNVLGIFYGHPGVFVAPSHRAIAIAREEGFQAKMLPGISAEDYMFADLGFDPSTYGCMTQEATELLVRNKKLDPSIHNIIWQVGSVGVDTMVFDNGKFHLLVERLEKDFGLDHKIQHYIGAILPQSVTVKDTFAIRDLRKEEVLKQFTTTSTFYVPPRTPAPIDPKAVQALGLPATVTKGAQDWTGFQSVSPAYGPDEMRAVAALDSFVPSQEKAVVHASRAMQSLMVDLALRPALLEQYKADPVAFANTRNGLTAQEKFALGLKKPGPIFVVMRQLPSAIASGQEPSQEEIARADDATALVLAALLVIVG

MroM-A2 = biological target: T2, MroM-A2 (Mycena rosella, UniProt A0A9X9ZA29); conditions: 1.86 Å; core peptide A2 fused and N-methylated
T2 sequence (A0A9X9ZA29 4-400): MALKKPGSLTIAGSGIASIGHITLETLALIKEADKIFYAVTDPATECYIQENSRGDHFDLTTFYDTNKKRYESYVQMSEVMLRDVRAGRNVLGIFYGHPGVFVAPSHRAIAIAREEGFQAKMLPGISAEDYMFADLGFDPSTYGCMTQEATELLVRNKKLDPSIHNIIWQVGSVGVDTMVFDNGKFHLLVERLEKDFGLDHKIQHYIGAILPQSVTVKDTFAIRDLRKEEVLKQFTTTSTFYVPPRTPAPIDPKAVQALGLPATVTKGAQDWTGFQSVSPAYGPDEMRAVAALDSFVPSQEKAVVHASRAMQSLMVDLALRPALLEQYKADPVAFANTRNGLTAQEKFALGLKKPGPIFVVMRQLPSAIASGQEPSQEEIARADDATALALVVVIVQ

MroM-A1 = biological target: T3, MroM-A1 (Mycena rosella, UniProt A0A9X9ZA27); conditions: 1.79 Å; core peptide A1 fused and N-methylated
T3 sequence (A0A9X9ZA27 4-400): T2 sequence (A0A9X9ZA29 4-400) with L389F, A390I, L391I, V392I, V393Y, V394I, I395V, V396Q, Q397G

With Nc1ncnc2c1ncn2[C@@H]1O[C@H](CSCC[C@H](N)C(=O)O)[C@@H](O)[C@H]1O [S-adenosylhomocysteine] as the molecule, how does the X-ray crystal structure (MroM-CspL) read?
Its X-ray crystal structure is “Each structure was determined in complex with product S-adenosylhomocysteine (SAH)”.

And the X-ray crystal structure (MroM-A2)?
The X-ray crystal structure was “Each structure was determined in complex with product S-adenosylhomocysteine (SAH)”.

And the X-ray crystal structure (MroM-A1)?
Its X-ray crystal structure is “Each structure was determined in complex with product S-adenosylhomocysteine (SAH)”.
